According to ChEMBL document CHEMBL4145553, “Design, synthesis, and biological evaluation of novel amide and hydrazide based thioether analogs targeting Histone deacteylase (HDAC) enzymes” (Eur J Med Chem, 2018):

Legend:
HL-60(TB) = assay: Growth inhibition of human HL-60(TB) cells at 10 uM incubated for 48 hrs by sulforhodamine B assay relative to control; type: functional; conditions: HL-60, 48 h, values are per cent of control
HOP-92 = assay: Growth inhibition of human HOP92 cells at 10 uM incubated for 48 hrs by sulforhodamine B assay relative to control; type: functional; conditions: HOP-92, 48 h, values are per cent of control
NCI-H322M = assay: Growth inhibition of human NCI-H322M cells at 10 uM incubated for 48 hrs by sulforhodamine B assay relative to control; type: functional; conditions: values are per cent of control
NCI-H460 = assay: Growth inhibition of human NCI-H460 cells at 10 uM incubated for 48 hrs by sulforhodamine B assay relative to control; type: functional; conditions: NCI-H460, 48 h, values are per cent of control
TK-10 = assay: Growth inhibition of human TK10 cells at 10 uM incubated for 48 hrs by sulforhodamine B assay relative to control; type: functional; conditions: TK-10, 48 h, values are per cent of control
SN12C = assay: Growth inhibition of human SN12C cells at 10 uM incubated for 48 hrs by sulforhodamine B assay relative to control; type: functional; conditions: values are per cent of control
CAKI-1 = assay: Growth inhibition of human Caki1 cells at 10 uM incubated for 48 hrs by sulforhodamine B assay relative to control; type: functional; conditions: CAKI-1, 48 h, values are per cent of control
ACHN = assay: Growth inhibition of human ACHN cells at 10 uM incubated for 48 hrs by sulforhodamine B assay relative to control; type: functional; conditions: values are per cent of control
A498 = assay: Growth inhibition of human A498 cells at 10 uM incubated for 48 hrs by sulforhodamine B assay relative to control; type: functional; conditions: A498, 48 h, values are per cent of control
SK-OV-3 = assay: Growth inhibition of human SKOV3 cells at 10 uM incubated for 48 hrs by sulforhodamine B assay relative to control; type: functional; conditions: SK-OV-3, 48 h, values are per cent of control
NCI/ADR-RES = assay: Growth inhibition of human NCI/ADR-RES cells at 10 uM incubated for 48 hrs by sulforhodamine B assay relative to control; type: functional; conditions: values are per cent of control
UO-31 = assay: Growth inhibition of human UO31 cells at 10 uM incubated for 48 hrs by sulforhodamine B assay relative to control; type: functional; conditions: UO-31, 48 h, values are per cent of control
DU-145 = assay: Growth inhibition of human DU145 cells at 10 uM incubated for 48 hrs by sulforhodamine B assay relative to control; type: functional; conditions: DU-145, 48 h, values are per cent of control
MCF7 = assay: Growth inhibition of human MCF7 cells at 10 uM incubated for 48 hrs by sulforhodamine B assay relative to control; type: functional; conditions: MCF7, 48 h, values are per cent of control
MDA-MB-231 = assay: Growth inhibition of human MDA-MB-231 cells at 10 uM incubated for 48 hrs by sulforhodamine B assay relative to control; type: functional; conditions: MDA-MB-231, 48 h, values are per cent of control
BT-549 = assay: Growth inhibition of human BT549 cells at 10 uM incubated for 48 hrs by sulforhodamine B assay relative to control; type: functional; conditions: BT-549, 48 h, values are per cent of control
T47D = assay: Growth inhibition of human T47D cells at 10 uM incubated for 48 hrs by sulforhodamine B assay relative to control; type: functional; conditions: values are per cent of control
SR = assay: Growth of human SR cells at 10 uM incubated for 48 hrs by sulforhodamine B assay relative to control
EKVX = assay: Growth of human EKVX cells at 10 uM incubated for 48 hrs by sulforhodamine B assay relative to control
SNB-75 = assay: Growth of human SNB75 cells at 10 uM incubated for 48 hrs by sulforhodamine B assay relative to control; conditions: SNB-75, 48 h
SNB-19 = assay: Growth of human SNB19 cells at 10 uM incubated for 48 hrs by sulforhodamine B assay relative to control; conditions: SNB-19, 48 h
SF-539 = assay: Growth of human SF539 cells at 10 uM incubated for 48 hrs by sulforhodamine B assay relative to control; conditions: SF-539, 48 h
SF-268 = assay: Growth of human SF268 cells at 10 uM incubated for 48 hrs by sulforhodamine B assay relative to control; conditions: SF-268, 48 h
SW-620 = assay: Growth of human SW620 cells at 10 uM incubated for 48 hrs by sulforhodamine B assay relative to control; conditions: SW-620, 48 h
HT-29 = assay: Growth of human HT-29 cells at 10 uM incubated for 48 hrs by sulforhodamine B assay relative to control; conditions: HT-29, 48 h
HOP-62 = assay: Growth of human HOP62 cells at 10 uM incubated for 48 hrs by sulforhodamine B assay relative to control; conditions: HOP-62, 48 h
OVCAR-3 = assay: Growth of human OVCAR3 cells at 10 uM incubated for 48 hrs by sulforhodamine B assay relative to control; conditions: OVCAR-3, 48 h
HCT-116 = assay: Growth of human HCT116 cells at 10 uM incubated for 48 hrs by sulforhodamine B assay relative to control; conditions: HCT-116, 48 h
UACC-257 = assay: Growth of human UACC257 cells at 10 uM incubated for 48 hrs by sulforhodamine B assay relative to control; conditions: UACC-257, 48 h
LOX IMVI = assay: Growth of human LOXIMVI cells at 10 uM incubated for 48 hrs by sulforhodamine B assay relative to control
Malme-3M = assay: Growth of human MALME-3M cells at 10 uM incubated for 48 hrs by sulforhodamine B assay relative to control
NCI-H522 = assay: Growth of human NCI-H522 cells at 10 uM incubated for 48 hrs by sulforhodamine B assay relative to control; conditions: NCI-H522, 48 h
RPMI-8226 = assay: Growth of human RPMI8226 cells at 10 uM incubated for 48 hrs by sulforhodamine B assay relative to control; conditions: RPMI-8226, 48 h
SK-MEL-28 = assay: Growth of human SK-MEL-28 cells at 10 uM incubated for 48 hrs by sulforhodamine B assay relative to control; conditions: SK-MEL-28, 48 h

SMILES | growth, % of control at 10 µM (HL-60(TB)) [%] | growth, % of control at 10 µM (HOP-92) [%] | growth, % of control at 10 µM (NCI-H322M) [%] | growth, % of control at 10 µM (NCI-H460) [%] | growth, % of control at 10 µM (TK-10) [%] | growth, % of control at 10 µM (SN12C) [%] | growth, % of control at 10 µM (CAKI-1) [%] | growth, % of control at 10 µM (ACHN) [%] | growth, % of control at 10 µM (A498) [%] | growth, % of control at 10 µM (SK-OV-3) [%] | growth, % of control at 10 µM (NCI/ADR-RES) [%] | growth, % of control at 10 µM (UO-31) [%] | growth, % of control at 10 µM (DU-145) [%] | growth, % of control at 10 µM (MCF7) [%] | growth, % of control at 10 µM (MDA-MB-231) [%] | growth, % of control at 10 µM (BT-549) [%] | growth, % of control at 10 µM (T47D) [%] | growth, % of control at 10 µM (SR) [%] | growth, % of control at 10 µM (EKVX) [%] | growth, % of control at 10 µM (SNB-75) [%] | also measured
CCS/C(Nc1ccccc1)=C(\C#N)C(=O)N/N=C\c1ccco1 | 84.2 | 94.7 | 101 | 110 | 103 | 97.7 | 95.9 | 105 | 77.3 | 99.3 | 101 | 86.8 | 106 | 66.8 | 96.2 | 109 | 78 | 85.1 | 101 | 89.1 | growth, % of control at 10 µM (SNB-19): 101%; growth, % of control at 10 µM (SF-539): 98.7%; growth, % of control at 10 µM (SF-268): 98%; growth, % of control at 10 µM (SW-620): 103%; growth, % of control at 10 µM (HT-29): 94.7%; growth, % of control at 10 µM (HOP-62): 97.4%; growth, % of control at 10 µM (OVCAR-3): 104%; growth, % of control at 10 µM (HCT-116): 95.5%; growth, % of control at 10 µM (UACC-257): 84.4%; growth, % of control at 10 µM (LOX IMVI): 109%; growth, % of control at 10 µM (Malme-3M): 95.9%; growth, % of control at 10 µM (NCI-H522): 75.7%; growth, % of control at 10 µM (RPMI-8226): 103%; growth, % of control at 10 µM (SK-MEL-28): 109%
CC(C)(C)S/C(Nc1ccccc1)=C(\C#N)C(=O)N/N=C\c1ccco1 | 63.6 | 82.3 | 102 | 102 | 103 | 103 | 95.8 | 98 | 87 | 89.3 | 100 | 90.2 | 109 | 92.3 | 99.6 | 103 | 91.4 | 76.5 | 91.9 | 82.2 | growth, % of control at 10 µM (SNB-19): 96.9%; growth, % of control at 10 µM (SF-539): 94.3%; growth, % of control at 10 µM (SF-268): 99.7%; growth, % of control at 10 µM (SW-620): 94.4%; growth, % of control at 10 µM (HT-29): 87.2%; growth, % of control at 10 µM (HOP-62): 93.8%; growth, % of control at 10 µM (OVCAR-3): 106%; growth, % of control at 10 µM (HCT-116): 82.9%; growth, % of control at 10 µM (UACC-257): 83%; growth, % of control at 10 µM (LOX IMVI): 99.6%; growth, % of control at 10 µM (Malme-3M): 104%; growth, % of control at 10 µM (NCI-H522): 71.1%; growth, % of control at 10 µM (RPMI-8226): 106%; growth, % of control at 10 µM (SK-MEL-28): 106%
CC(C)(C)S/C(Nc1ccccc1)=C(\C#N)C(=O)N/N=C\c1ccc(Cl)cc1Cl | 89.2 | 94.1 | 99.8 | 101 | 99.1 | 101 | 98.4 | 105 | 101 | 101 | 96 | 82.7 | 113 | 92.7 | 96.8 | 97 | 78.4 | 70 | 101 | 102 | growth, % of control at 10 µM (SNB-19): 97.5%; growth, % of control at 10 µM (SF-539): 98%; growth, % of control at 10 µM (SF-268): 99.7%; growth, % of control at 10 µM (SW-620): 105%; growth, % of control at 10 µM (HT-29): 92.6%; growth, % of control at 10 µM (HOP-62): 98.1%; growth, % of control at 10 µM (OVCAR-3): 98.6%; growth, % of control at 10 µM (HCT-116): 88%; growth, % of control at 10 µM (UACC-257): 92.5%; growth, % of control at 10 µM (LOX IMVI): 101%; growth, % of control at 10 µM (Malme-3M): 94.2%; growth, % of control at 10 µM (NCI-H522): 82.7%; growth, % of control at 10 µM (RPMI-8226): 98.7%; growth, % of control at 10 µM (SK-MEL-28): 108%
